Assay results: patent publication US6872833B2, “Adenosine receptor ligands” (Hoffmann-La Roche Inc., priority 2003, dated 2005)

What was measured:
[1] = molecular target: T1, human adenosine A1 receptor (Homo sapiens, UniProt P30542); assay: [3H]-DPCPX binding assay, human adenosine A1 receptor (CHO cell membranes, SPA); conditions: selectivity of hA2A versus hA1 binding
T1 construct: expressed in transfected cells; host or cells: CHO cells, semliki forest virus expression system; washed membranes
T1 sequence (P30542 1-326): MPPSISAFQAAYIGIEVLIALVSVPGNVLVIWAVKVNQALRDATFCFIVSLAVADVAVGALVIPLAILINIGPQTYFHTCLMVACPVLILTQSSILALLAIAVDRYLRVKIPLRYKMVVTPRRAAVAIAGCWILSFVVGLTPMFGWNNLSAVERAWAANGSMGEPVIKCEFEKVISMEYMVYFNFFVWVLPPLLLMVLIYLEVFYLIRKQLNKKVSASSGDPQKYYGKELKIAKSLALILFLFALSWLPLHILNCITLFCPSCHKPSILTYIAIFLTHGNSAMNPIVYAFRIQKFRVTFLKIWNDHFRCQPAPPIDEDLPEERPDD
Procedure: Human Adenosine A1 Receptor
(§1) The human adenosine A1 receptor was recombinantly expressed in Chinese hamster ovary (CHO) cells using the semliki forest virus expression system. Cells were harvested, washed twice by centrifugation, homogenized and again washed by centrifugation. The final washed membrane pellet was suspended in a Tris (50 mM) buffer containing 120 mM NaCl, 5 mM KCl, 2 mM CaCl2 and 10 mM MgCl2 (pH 7.4) (buffer A). The [^3H]-DPCPX (([propyl-^3H]8-cyclopentyl-1,3-dipropyxanthine); 0.6 nM) binding assay was carried out in 96-well plates in the presence of 2.5 μg of membrane protein, 0.5 mg of Ysi-poly-1-lysine SPA beads and 0.1 U adenosine deaminase in a final volume of 200 μl of buffer A. Non-specific binding was defined using xanthine amine congener (XAC; 2 μM). Compounds were tested at 10 concentrations from 10 μM-0.3 nM. All assays were conducted in duplicate and repeated at least two times. Assay plates were incubated for 1 hour at room temperature before centrifugation and then bound ligand was determined using a Packard Topcount scintillation counter. IC50 values were calculated using a non-linear curve fitting program and Ki values calculated using the Cheng-Prussoff equation.

[2] = molecular target: T2, human adenosine A2A receptor (Homo sapiens, UniProt P29274); assay: [3H]-SCH-58261 binding assay, human adenosine A2A receptor (CHO cell membranes, SPA); conditions: recombinant human A2A receptor in CHO membranes, [3H]-SCH-58261 1 nM; read-out: hA2 (pKi) (converted)
T2 construct: expressed in transfected cells; host or cells: CHO cells, semliki forest virus expression system; washed membranes
Procedure: Human Adenosine A2A Receptor
as §1, with “A2A” for “A1”, “[^3H]-SCH-58261 (Dionisotti et al., 1997, Br J Pharmacol 121, 353; 1” for “[^3H]-DPCPX (([propyl-^3H]8-cyclopentyl-1,3-dipropyxanthine); 0.6”, “ligand” for “ligand was”

T2 sequence (P29274 whole entry): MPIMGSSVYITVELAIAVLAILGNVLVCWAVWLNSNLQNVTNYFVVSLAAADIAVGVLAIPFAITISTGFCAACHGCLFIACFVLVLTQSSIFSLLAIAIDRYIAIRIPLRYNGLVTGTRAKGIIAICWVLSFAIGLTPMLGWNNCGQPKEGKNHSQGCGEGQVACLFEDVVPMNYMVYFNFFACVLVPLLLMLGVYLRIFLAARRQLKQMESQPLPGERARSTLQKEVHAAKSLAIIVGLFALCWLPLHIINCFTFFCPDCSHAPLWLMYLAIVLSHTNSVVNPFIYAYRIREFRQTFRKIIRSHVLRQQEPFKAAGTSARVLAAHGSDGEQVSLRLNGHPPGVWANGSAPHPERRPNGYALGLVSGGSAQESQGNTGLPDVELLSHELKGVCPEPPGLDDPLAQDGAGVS

| Compound | Selectivity to hA1 [1] | Ki [2] |
| --- | --- | --- |
| COc1ccc(C2COCCO2)c2sc(NC(=O)c3ccnc(C4=CCOCC4)c3)nc12 (racemic) [Example 5, (±)-2-(3,6-Dihydro-2H-pyran-4-yl)-N-(7-[1,4]dioxan-2-yl-4-methoxy-benzothiazol-2-yl)-isonicotinamide] | 1421 | 1450 pM |
| COc1ccc(C2COCCO2)c2sc(NC(=O)c3ccnc(C4CCOCC4)c3)nc12 (racemic) [Example 6, (±)-N-(7-[1,4]Dioxan-2-yl-4-methoxy-benzothiazol-2-yl)-2-(tetrahydro-pyran-4-yl)-isonicotinamide] | 1582 | 1320 pM |
| COc1cc(C(=O)Nc2nc3c(OC)ccc(C4COCCO4)c3s2)ccn1 (single isomer, unassigned; (+)) [Example 14, (+)-N-(7-[1,4]Dioxan-2-yl-4-methoxy-benzothiazol-2-yl)-2-methoxy-isonicotinamide] | 1828 | 1200 pM |
| COc1ccc(C2COCCO2)c2sc(NC(=O)c3ccnc(C)c3)nc12 (single isomer, unassigned; (+)) [Example 15, (+)-N-(7-[1,4]Dioxan-2-yl-4-methoxy-benzothiazol-2-yl)-2-methyl-isonicotinamide] | 1758 | 955 pM |
| COc1ccc(C2COCCO2)c2sc(NC(=O)c3ccc(F)cc3)nc12 (single isomer, unassigned; (+)) [Example 16, (+)-N-(7-[1,4]Dioxan-2-yl-4-methoxy-benzothiazol-2-yl)-4-fluoro-benzamide] | 1005 | 832 pM |
| COc1ccc(C2COCCO2)c2sc(NC(=O)c3ccnc(N4CCOCC4)c3)nc12 (single isomer, unassigned; (+)) [Example 17, (+)-N-(7-[1,4]Dioxan-2-yl-4-methoxy-benzothiazol-2-yl)-2-morpholin-4-yl-isonicotinamide] | 3874 | 676 pM |
| COc1ccc(C2COCCO2)c2sc(NC(=O)c3ccnc(N4CCC4)c3)nc12 (single isomer, unassigned; (+)) [Example 18, (+)-2-Azetidin-1-yl-N-(7-[1,4]dioxan-2-yl-4-methoxy-benzothiazol-2-yl)-isonicotinamide] | 7378 | 977 pM |
| COc1ccc(C2COCCO2)c2sc(NC(=O)c3ccnc(N4CCC(O)CC4)c3)nc12 (single isomer, unassigned; (+)) [Example 29, (+)-4-Hydroxy-3,4,5,6-tetrahydro-2H-[1,2′]bipyridinyl-4′-carboxylic acid (7-[1,4]dioxan-2-yl-4-methoxy-benzothiazol-2-yl)-amide] | 2850 | 1070 pM |
| COc1ccc(C2COCCO2)c2sc(NC(=O)c3ccnc(N4CC(F)C4)c3)nc12 (single isomer, unassigned; (+)) [Example 30, (+)-N-(7-[1,4]Dioxan-2-yl-4-methoxy-benzothiazol-2-yl)-2-(3-fluoro-azetidin-1-yl)-isonicotinamide] | 6138 | 891 pM |
| CCOC1CN(c2cc(C(=O)Nc3nc4c(OC)ccc(C5COCCO5)c4s3)ccn2)C1 (single isomer, unassigned; (+)) [Example 31, (+)-N-(7-[1,4]Dioxan-2-yl-4-methoxy-benzothiazol-2-yl)-2-(3-ethoxy-azetidin-1-yl)-isonicotinamide] | 2718 | 1230 pM |
| COc1ccc(C2COCCO2)c2sc(NC(=O)c3ccnc(N4CC(OC)C4)c3)nc12 (single isomer, unassigned; (+)) [Example 32, (+)-N-(7-[1,4]Dioxan-2-yl-4-methoxy-benzothiazol-2-yl)-2-(3-methoxy-azetidin-1-yl)-isonicotinamide] | 5404 | 646 pM |
| COc1ccc(C(=O)Nc2nc3c(OC)ccc(C4COCCO4)c3s2)cc1 (single isomer, unassigned; (+)) [Example 33, (+)-N-(7-[1,4]Dioxan-2-yl-4-methoxy-benzothiazol-2-yl)-4-methoxy-benzamide] | 1238 | 708 pM |
| COc1ccc(C2COCCO2)c2sc(NC(=O)c3ccc(C)cc3)nc12 (single isomer, unassigned; (+)) [Example 34, (+)-N-(7-[1,4]Dioxan-2-yl-4-methoxy-benzothiazol-2-yl)-4-methyl-benzamide] | 4503 | 417 pM |

The next lines start with the values.

| Selectivity to hA1 [1] | Ki [2] | Compound |
| --- | --- | --- |
| 1411 | 537 pM | COc1ccc(C2COCCO2)c2sc(NC(=O)c3ccc4c(c3)OCO4)nc12 (single isomer, unassigned; (+)) [Example 36, (+)-Benzo[1,3]dioxole-5-carboxylic acid (7-[1,4]dioxan-2-yl-4-methoxy-benzothiazol-2-yl)-amide] |
| 10082 | 724 pM | COc1cccc(C(=O)Nc2nc3c(OC)ccc(C4COCCO4)c3s2)c1 (single isomer, unassigned; (+)) [Example 37, (+)-N-(7-[1,4]Dioxan-2-yl-4-methoxy-benzothiazol-2-yl)-3-methoxy-benzamide] |
| 674 | 1070 pM | COc1ccc(C2COCCO2)c2sc(NC(=O)c3cccc(F)c3)nc12 (single isomer, unassigned; (+)) [Example 39, (+)-N-(7-[1,4]Dioxan-2-yl-4-methoxy-benzothiazol-2-yl)-3-fluoro-benzamide] |
| 2319 | 851 pM | COc1ccc(C2COCCO2)c2sc(NC(=O)c3ccnc(N4CC(O)C4)c3)nc12 (single isomer, unassigned; (+)) [Example 49, (+)-N-(7-[1,4]Dioxan-2-yl-4-methoxy-benzothiazol-2-yl)-2-(3-hydroxy-azetidin-1-yl)-isonicotinamide] |
| 3141 | 501 pM | COc1ccc(C2COCCO2)c2sc(NC(=O)c3ccnc(OCCN4CCOCC4)c3)nc12 (single isomer, unassigned; (+)) [Example 52, (+)-N-(7-[1,4]Dioxan-2-yl-4-methoxy-benzothiazol-2-y)-2-(2-morpholin-4-yl-ethoxy)-isonicotinamide] |
| 8832 | 832 pM | COc1cncc(C(=O)Nc2nc3c(OC)ccc(C4COCCO4)c3s2)c1 (single isomer, unassigned; (+)) [Example 53, (+)-N-(7-[1,4]Dioxan-2-yl-4-methoxy-benzothiazol-2-yl)-5-methoxy-nicotinamide] |
